Measurements as given in patent publication US7572910B2, “Pyridazinone aldose reductase inhibitors” (Pfizer, Inc., priority 2004, dated 2009).

Row | melting point | SMILES
1 | 186 to 189 °C | O=c1ccc(S(=O)(=O)c2oc3ccccc3c2O)n[nH]1 [Example 16, 6-(3-Hydroxy-benzofuran-2-sulfonyl)-2H-pyridazin-3-one]
2 | 233 to 235 °C | Cn1c(S(=O)(=O)c2ccc(=O)[nH]n2)cc2ccccc21 [Example 40, 6-(N-Methylindole-2-sulfonyl)-2H-pyridazin-3-one]
3 | 250 °C | O=c1ccc(S(=O)(=O)c2[nH]c3ccccc3c2Cl)n[nH]1 [Example 36, 6-(3-Chloro-indole-2-sulfonyl)-2H-pyridazin-3-one]
